Results published in patent US8895242B2, “Single molecule nucleic acid nanoparticles” (The Regents of the University of California, priority 2009, dated 2014).

Assays:
cells = assay: Doxorubicin toxicity to cells with and without untargeted DNA particles; assay type: cell-based
Description: The IC50 was determined to be 0.1 μg of Doxo for […]. […] Targeted DNA particles may be selected or a targeting moiety added. (2) At the same time, DNA nanoparticles absorbed Doxo, which is good for our purpose of loading DNA with drugs (FIG. 45).

DNA nanoparticles = assay: Doxorubicin fluorescence quenching on DNA nanoparticles; details: indicates doxorubicin binding to the particles
From the text: With increasing concentration of Doxorubicin, the DNA nanoparticles become saturated and free Doxorubicin in solution can fluoresce.
The fluorescence of doxorubicin is quenched with the addition of DNA nanoparticles, indicating doxorubicin binding to the particles (FIG. 44).

B16 melanoma = assay: Intra-tumoral injection into B16 melanoma, immunohistochemistry of immune cell recruitment; assay type: in vivo, mice
Description: FIG. 23 provides data relating to Hp-91(270 μg), pI:C (125 μg), or Pam3Cys (125 μg) injected into B16 melanoma and the mice were sacrificed 24 h after the injection. The tumor was embedded in OCT and frozen sections were stained for Mac 1 (macrophages), CD11c (DCs), and CD3 (T cells) by immuno-histochemistry. Pictures were taken in brightfield at 20×.
In certain subsets of breast tumors the presence of tumor-associated macrophages is associated with […]. Thus, in order to maximize the anti-tumor immune response we tested two TLR agonists; pI:C (TLR3 agonist) and Pam3Cys (TLR2 agonist), and our immunostimulatory peptides for their ability to recruit immune cells to the tumor. Hp-91, pI:C, or Pam3Cys were injected into B16 melanoma, the mice were sacrificed 24 h after the injection and the tumor was frozen and sections stained for the indicated markers. […] This is a very promising result as Hp-91 will not only contribute to the recruitment of DCs, but also mature the arriving DCs. Thus in the context of antigen release by concurrent local cytotoxic therapy, we expect to create a very favorable environment for the uptake of tumor antigen by DCs and their subsequent activation. In addition, CD8 T cells after being primed in the draining lymph nodes are expected to be recruited in higher numbers to the tumor site via the peptide leading to a strong immune response and tumor killing.

[1] = tested on: pancreatic cancer cell line panc02; assay: Flow cytometry binding of DNA nanoparticle clones to panc02; assay type: cell-based, mouse; details: fluorescently labeled
From the text: FIGS. 57A and 57B summarizes the results of the selection of pancreatic cancer cell line panc02 targeting particles. The mouse pancreatic lines panc02 was panned with a single module DNA nanoparticle library. After the 3rd and 4th round, the selected pool was fluorescently labeled and tested on the target cells by flow cytometry (FIG. 57A). A shift indicating enrichment of binding clones was observed. After the 5th and 6th round, clones were generated from the selected pool and sequenced (TABLE 6). 10 of the 12 sequenced clones contained a specific sequence motif: AATGGGGCG (SEQ ID NO:12). In two of the clones the motif appears in the same frame (C45 and C58). Two independent clones for each we recovered with the sequence of clone 40 and 46.

[2] = Hp-91 270 μg, pI:C 125 μg, Pam3Cys 125 μg, 24 h after injection
[3] = higher dose 500 μg, data not shown

Which IC50 (cells) does the source give for `COc1cccc2c1C(=O)c1c(O)c3c(c(O)c1C2=O)C[C@@](O)(C(=O)CO)C[C@@H]3O[C@H]1C[C@H](N)[C@H](O)[C@H](C)O1` [Doxo, Doxorubicin] here?
The IC50 was 0.1 µg.

What about the “doxorubicin fluorescence on addition of DNA nanoparticles” value (DNA nanoparticles; listed as Doxorubicin) of the same molecule?
Its value is “fluorescence is quenched”.

What about the “doxorubicin fluorescence on addition of DNA nanoparticles” value (DNA nanoparticles; listed as doxorubicin) of the same molecule?
The value was “quenched”.

What does the source list for `CCCCCCCCCCCCCCCC(=O)N[C@@H](CSC[C@@H](COC(=O)CCCCCCCCCCCCCCC)OC(=O)CCCCCCCCCCCCCCC)C(=O)O` [Pam3Cys]?
recruitment of DCs (CD11c+) into the tumor (B16 melanoma; [2]): only Hp-91; recruitment of T cells (CD3+) into the tumor (B16 melanoma; [2]): only Hp-91; recruitment of macrophages into the tumor (B16 melanoma; [2]): caused recruitment of macrophages; DC recruitment into the tumor (B16 melanoma; [3]): no T cell and DC recruitment; T cell recruitment into the tumor (B16 melanoma; [3]): no T cell

B1: C21: panc02-selection clone lacking the … motif, SEQ ID NO:10 (nucleic acid)
DNA: TGCTTTTTGGAACTCCTGCTAGACGTTAGATGTATCTGACCTTACGACTTCAACTTCCTTCTAAATCTGCCCACAACGATGGTGACGTTGAGTTGGATCC
modifications: DNA, backbone and methylation of C not given here; rolling circle concatemer folded into DNA nanoparticle
Which “binding to panc02” value [1] does the source give for B1 here?
Its value is “do not”.

B2: C50: panc02-selection clone lacking the … motif, SEQ ID NO:11 (nucleic acid)
DNA: TGCTTTTTGGAACTCCTGCTCAACTTGTGTCCTCTTGAAAGAGTCGGTCATACCTATAAGAATACTTTTATACAGCCAAAGGTGACGTTGAGTTGGATCC
modifications: DNA, backbone and methylation of C not given here; rolling circle concatemer folded into DNA nanoparticle
For B2, which “binding to panc02” value [1] is on record?
Its value is “do not”.
